PubChem BioAssay AID743141 (Broad Institute, 2013)
Calls of active or inactive are those of the source.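 The calls were made as follows: active = compounds that cut viability of the normal-p53 cell line panel with an IC50 under 10 µM; inactive = IC50 above 10 µM.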

Assays:
Assay in all cases: growth inhibition in A549, HCT116, IMR90 – cell-based, TP53 wild-type panel, dry powder, selectivity assay for cell-selective anticancer agent project, dose response (AID 743141)
[1] = system: A549 viability, CellTiter-Glo luminescence, 48 h
[2] = system: HCT116 viability, CellTiter-Glo luminescence, 48 h
[3] = system: IMR90 viability, CellTiter-Glo luminescence, 48 h

SMILES	IC50 [1]	IC50 [2] [µM]	IC50 [3] [µM]
C[C@@H]1CC(=O)NN=C1c1ccc(N2CCOCC2)c(F)c1	> 10 µM (inactive)	> 10	> 10
CCN(CC)c1ccc(C2=NNC(=O)CC2C)cc1[N+](=O)[O-] (stereo unspecified)	> 10 µM (inactive)	> 10	> 10
CCN1N=C(c2ccc(N(CC)CC)cc2)[C@H](C)CC1=O	> 10 µM (inactive)	> 10	> 10
C[C@@H]1CC(=O)NN=C1c1ccc(F)c(F)c1	> 10 µM (inactive)	> 10	> 10
C[C@@H]1CC(=O)NN=C1c1ccc(Cl)cc1	> 10 µM (inactive)	> 10	> 10
C[C@H]1CC(=O)NN=C1c1ccc(N2CCOCC2)c(F)c1	> 10 µM (inactive)	> 10	> 10
COc1cc2c(cc1OC)-c1cc(=Nc3c(C)cc(C)cc3C)n(C)c(=O)n1CC2	> 10 µM (inactive)	> 10	> 10
O=C1CN2Cc3c(ccc(Cl)c3Cl)N=C2N1	> 10 µM (inactive)	> 10	> 10
C[C@@H]1CC(=O)NN=C1c1ccc(-c2cncnc2)cc1	> 10 µM (inactive)	> 10	> 10
C[C@@H]1CC(=O)NN=C1c1ccc(N2CCOCC2)cc1	> 10 µM (inactive)	> 10	> 10
C[C@@H]1CC(=O)NN=C1c1ccc(C2CCCCC2)cc1	> 10 µM (inactive)	> 10	> 10
CC(=O)Nc1ccc(C2=NNC(=O)C[C@H]2C)cc1	> 10 µM (inactive)	> 10	> 10
